Experimental data: publication PMC11247499, “2,8-Disubstituted-1,5-naphthyridines as Dual Inhibitors of Plasmodium falciparum Phosphatidylinositol-4-kinase and Hemozoin Formation with In Vivo Efficacy” (Journal of Medicinal Chemistry, 2024)
Converted amounts (≈) assume the structure as drawn. “And” between values parts separate entries of the source, which are not always exact repeats. Equal entries are not always repeated. Where two headings read alike, the source gives them in different places.

Experiments:
[1] = biological target: PvPI4K (Plasmodium vivax, UniProt A5KB26); experiment: biochemical
Sequence of PvPI4K (A5KB26 entry or part of it): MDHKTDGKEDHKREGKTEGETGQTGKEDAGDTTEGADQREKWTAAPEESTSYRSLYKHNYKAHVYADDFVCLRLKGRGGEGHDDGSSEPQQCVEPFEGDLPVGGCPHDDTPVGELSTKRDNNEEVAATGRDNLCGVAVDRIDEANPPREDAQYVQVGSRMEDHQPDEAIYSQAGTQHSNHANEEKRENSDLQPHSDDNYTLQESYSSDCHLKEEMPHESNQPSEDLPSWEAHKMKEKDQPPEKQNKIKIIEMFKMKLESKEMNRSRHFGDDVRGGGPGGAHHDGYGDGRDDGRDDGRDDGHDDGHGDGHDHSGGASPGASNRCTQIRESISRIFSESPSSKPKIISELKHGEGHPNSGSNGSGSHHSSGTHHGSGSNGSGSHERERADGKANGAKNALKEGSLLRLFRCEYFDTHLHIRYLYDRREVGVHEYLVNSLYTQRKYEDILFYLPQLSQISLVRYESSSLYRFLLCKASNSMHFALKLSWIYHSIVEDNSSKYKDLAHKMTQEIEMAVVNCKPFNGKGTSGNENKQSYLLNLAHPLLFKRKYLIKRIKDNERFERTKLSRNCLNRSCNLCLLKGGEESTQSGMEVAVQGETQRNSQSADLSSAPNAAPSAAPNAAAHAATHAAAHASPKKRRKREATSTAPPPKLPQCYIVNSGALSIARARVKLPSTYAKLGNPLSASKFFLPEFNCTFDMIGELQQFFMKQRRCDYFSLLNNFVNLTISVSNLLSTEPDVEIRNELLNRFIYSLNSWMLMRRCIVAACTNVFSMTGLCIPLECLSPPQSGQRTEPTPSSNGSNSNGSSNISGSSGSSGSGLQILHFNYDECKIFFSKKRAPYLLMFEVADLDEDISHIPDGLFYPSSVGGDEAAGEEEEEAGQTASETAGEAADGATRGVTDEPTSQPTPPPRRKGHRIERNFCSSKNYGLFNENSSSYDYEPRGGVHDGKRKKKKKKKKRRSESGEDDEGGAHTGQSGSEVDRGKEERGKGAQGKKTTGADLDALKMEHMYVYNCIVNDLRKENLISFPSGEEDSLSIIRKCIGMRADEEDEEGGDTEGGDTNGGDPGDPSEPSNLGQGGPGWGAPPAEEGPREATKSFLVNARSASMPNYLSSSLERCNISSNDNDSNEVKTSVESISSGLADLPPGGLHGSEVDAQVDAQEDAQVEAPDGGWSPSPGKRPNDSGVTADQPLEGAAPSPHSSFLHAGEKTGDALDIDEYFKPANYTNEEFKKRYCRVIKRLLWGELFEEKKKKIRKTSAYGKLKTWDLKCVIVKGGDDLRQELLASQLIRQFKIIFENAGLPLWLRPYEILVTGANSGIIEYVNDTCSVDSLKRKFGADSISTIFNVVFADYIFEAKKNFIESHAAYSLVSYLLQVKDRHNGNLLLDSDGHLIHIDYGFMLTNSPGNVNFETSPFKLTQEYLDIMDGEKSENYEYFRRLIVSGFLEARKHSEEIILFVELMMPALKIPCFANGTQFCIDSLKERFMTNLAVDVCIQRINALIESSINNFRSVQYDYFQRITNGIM

[2] = system: P. falciparum NF54 strain; experiment: Antiplasmodial activity, parasite lactate dehydrogenase assay, NF54; type: cell-based, Plasmodium falciparum; settings: Plasmodium falciparum, NF54, 72 h, parasite lactate dehydrogenase assay over 72 h; read-out: Pf IC50 ± SD NF54
[3] = system: Chinese Hamster Ovary (CHO) cell line; experiment: cells; type: cell-based; settings: Cricetulus griseus, CHO; MTT assay over 48h; read-out: CHO IC50
[4] = system: P. falciparum PI4K conditional knockdown line; experiment: microbe, parasite or virus in culture; type: cell-based, Plasmodium falciparum; settings: for IC50: Plasmodium falciparum
[5] = LogD shake-flask; type: physicochemical; settings: n-octanol/phosphate buffer (1:1), phosphate buffer (pH 7.4) / n-octanol
[6] = biological target: cytochrome P450 2C9 (Homo sapiens, UniProt P11712); experiment: Cytochrome P450 inhibition, 2C9; type: in vitro ADME
[7] = biological target: cytochrome P450 3A4 (Homo sapiens, UniProt P08684); experiment: Cytochrome P450 inhibition, 3A4; type: in vitro ADME
[8] = biological target: cytochrome P450 2C19 (Homo sapiens, UniProt P33261); experiment: Cytochrome P450 inhibition, 2C19; type: in vitro ADME
[9] = Caco-2 permeability; type: in vitro ADME; settings: human
[10] = Plasma protein binding, human; type: in vitro ADME; settings: pooled human plasma, read-out: PPB fu, human
[11] = In vitro microsomal stability, human; type: in vitro ADME; settings: pooled human liver microsomes, pH 7.4, read-out: microsomal CLint, app human
[12] = In vitro microsomal stability, rat; type: in vitro ADME; settings: rat liver microsomes, pH 7.4, read-out: microsomal CLint, app rat
[13] = In vitro microsomal stability, mouse; type: in vitro ADME; settings: mouse liver microsomes, pH 7.4, read-out: microsomal CLint, app mouse
[14] = Mouse pharmacokinetic studies; settings: male, BalbC; for Vd at 24 h / half-life at 24 h / bioavailability at 24 h: in vivo; for Vd at 24 h / half-life at 24 h / in vivo mouse CLb: iv, 2 mg/kg; for bioavailability at 24 h: po
[15] = biological target: HuPI3Kα (Homo sapiens, UniProt P42336); experiment: Human kinase inhibition, HuPI3Kα; settings: read-out: HuPI3Kα, IC50
[16] = biological target: HuPI4Kβ (Homo sapiens, UniProt Q9UBF8); experiment: Human kinase inhibition, HuPI4Kβ; settings: read-out: HuPI4Kβ, IC50
Sequence of HuPI4Kβ (Q9UBF8 whole entry): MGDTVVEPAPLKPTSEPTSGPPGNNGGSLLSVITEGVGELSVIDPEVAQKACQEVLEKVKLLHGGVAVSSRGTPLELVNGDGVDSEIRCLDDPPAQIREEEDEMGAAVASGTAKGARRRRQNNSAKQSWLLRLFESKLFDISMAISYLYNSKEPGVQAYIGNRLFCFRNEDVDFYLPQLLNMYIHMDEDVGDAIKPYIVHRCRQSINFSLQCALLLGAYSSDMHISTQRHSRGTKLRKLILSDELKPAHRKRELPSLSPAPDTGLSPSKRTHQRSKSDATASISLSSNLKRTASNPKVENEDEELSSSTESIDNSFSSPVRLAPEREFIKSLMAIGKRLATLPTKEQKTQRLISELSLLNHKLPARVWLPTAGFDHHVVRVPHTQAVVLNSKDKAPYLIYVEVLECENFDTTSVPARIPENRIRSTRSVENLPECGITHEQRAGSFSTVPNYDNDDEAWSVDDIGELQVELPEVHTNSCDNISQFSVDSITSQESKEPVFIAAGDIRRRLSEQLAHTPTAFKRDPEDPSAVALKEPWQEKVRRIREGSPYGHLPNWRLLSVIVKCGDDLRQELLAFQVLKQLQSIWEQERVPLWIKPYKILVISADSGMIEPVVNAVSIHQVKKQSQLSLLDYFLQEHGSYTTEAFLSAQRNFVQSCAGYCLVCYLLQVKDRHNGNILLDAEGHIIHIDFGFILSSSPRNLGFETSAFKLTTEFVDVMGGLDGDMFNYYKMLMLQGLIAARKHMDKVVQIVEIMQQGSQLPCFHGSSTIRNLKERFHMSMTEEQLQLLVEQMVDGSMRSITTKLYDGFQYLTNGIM

[17] = biological target: HuMINK1 (Homo sapiens, UniProt Q8N4C8); experiment: Human kinase inhibition, HuMINK1; settings: read-out: HuMINK1, IC50
Sequence of HuMINK1 (Q8N4C8 whole entry): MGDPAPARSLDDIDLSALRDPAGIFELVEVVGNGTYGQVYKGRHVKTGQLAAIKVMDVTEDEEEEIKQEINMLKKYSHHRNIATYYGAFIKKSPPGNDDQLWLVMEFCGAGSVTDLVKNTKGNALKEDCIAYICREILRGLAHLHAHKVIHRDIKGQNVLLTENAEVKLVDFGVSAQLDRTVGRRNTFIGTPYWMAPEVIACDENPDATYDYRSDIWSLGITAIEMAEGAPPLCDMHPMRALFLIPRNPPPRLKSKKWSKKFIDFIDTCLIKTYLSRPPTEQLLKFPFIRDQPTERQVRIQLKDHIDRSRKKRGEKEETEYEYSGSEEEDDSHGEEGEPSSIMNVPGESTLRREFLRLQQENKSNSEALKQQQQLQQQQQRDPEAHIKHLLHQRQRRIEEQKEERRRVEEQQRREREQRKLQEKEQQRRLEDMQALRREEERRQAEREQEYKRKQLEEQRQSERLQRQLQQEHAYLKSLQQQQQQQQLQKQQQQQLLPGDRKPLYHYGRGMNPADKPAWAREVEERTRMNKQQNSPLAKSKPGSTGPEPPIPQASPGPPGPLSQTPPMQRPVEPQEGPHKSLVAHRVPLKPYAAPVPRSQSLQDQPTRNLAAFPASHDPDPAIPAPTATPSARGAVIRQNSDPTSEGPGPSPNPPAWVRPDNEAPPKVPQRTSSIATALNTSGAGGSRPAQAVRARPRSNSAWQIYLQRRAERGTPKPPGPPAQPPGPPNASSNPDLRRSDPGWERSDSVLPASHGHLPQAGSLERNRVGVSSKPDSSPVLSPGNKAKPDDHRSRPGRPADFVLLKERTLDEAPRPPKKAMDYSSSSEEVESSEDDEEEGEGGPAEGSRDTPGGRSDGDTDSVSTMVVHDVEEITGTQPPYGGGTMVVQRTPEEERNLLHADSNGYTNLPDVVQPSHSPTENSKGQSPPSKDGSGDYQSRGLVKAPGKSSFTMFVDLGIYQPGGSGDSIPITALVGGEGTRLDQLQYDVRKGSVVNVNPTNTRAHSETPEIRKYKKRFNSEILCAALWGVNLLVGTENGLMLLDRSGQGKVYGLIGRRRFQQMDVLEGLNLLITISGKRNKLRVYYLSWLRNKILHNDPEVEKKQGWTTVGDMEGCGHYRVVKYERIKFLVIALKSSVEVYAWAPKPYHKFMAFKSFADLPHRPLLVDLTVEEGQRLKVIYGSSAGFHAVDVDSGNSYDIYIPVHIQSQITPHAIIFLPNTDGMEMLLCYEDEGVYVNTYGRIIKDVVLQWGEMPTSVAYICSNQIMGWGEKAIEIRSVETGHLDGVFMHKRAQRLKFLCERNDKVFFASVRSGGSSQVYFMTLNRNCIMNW

[18] = biological target: HuMAP4K4 (Homo sapiens, UniProt O95819); experiment: Human kinase inhibition, HuMAP4K4; settings: read-out: HuMAP4K4, IC50
Sequence of HuMAP4K4 (O95819 whole entry): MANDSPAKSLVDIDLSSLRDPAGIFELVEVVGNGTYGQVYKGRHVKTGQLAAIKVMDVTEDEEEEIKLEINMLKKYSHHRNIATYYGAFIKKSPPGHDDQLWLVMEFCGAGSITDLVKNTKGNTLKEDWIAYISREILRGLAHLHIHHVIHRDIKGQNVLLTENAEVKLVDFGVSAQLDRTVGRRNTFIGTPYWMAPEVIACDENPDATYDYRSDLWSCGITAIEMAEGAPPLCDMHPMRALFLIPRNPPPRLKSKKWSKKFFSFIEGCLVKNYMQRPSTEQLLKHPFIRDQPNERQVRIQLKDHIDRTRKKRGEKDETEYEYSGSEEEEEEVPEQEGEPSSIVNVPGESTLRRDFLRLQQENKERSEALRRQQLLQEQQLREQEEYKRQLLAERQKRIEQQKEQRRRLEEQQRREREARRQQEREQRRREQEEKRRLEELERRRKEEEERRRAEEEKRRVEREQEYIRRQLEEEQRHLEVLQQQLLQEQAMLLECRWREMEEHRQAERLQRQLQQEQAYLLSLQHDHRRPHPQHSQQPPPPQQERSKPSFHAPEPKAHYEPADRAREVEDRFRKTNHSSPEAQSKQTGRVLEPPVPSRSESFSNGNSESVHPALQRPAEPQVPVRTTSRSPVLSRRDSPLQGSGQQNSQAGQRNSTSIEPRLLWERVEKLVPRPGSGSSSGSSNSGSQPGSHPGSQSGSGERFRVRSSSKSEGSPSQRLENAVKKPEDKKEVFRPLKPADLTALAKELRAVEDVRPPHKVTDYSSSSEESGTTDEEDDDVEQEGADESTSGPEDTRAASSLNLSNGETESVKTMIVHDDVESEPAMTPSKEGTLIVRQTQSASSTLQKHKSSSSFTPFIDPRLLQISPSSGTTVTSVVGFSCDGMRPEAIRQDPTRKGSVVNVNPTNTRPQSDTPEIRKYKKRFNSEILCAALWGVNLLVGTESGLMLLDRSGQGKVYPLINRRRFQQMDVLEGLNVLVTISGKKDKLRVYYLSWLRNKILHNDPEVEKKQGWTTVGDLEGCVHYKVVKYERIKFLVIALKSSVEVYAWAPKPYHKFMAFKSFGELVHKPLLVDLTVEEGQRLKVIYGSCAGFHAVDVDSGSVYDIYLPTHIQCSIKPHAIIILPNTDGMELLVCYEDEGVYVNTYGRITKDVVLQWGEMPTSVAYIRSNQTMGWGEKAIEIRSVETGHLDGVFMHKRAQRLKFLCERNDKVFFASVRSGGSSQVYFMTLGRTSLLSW

[19] = system: β-hematin (βH) formation; experiment: NP-40 mediated cell-free β-hematin assay; settings: read-out: β-hematin IC50; cell-free NP-40 detergent-mediated assay; n = 2
[20] = Solubility, miniaturized shake flask method
[21] = system: multidrug-resistant strain, K1; experiment: Antiplasmodial activity, parasite lactate dehydrogenase assay, K1; type: cell-based, Plasmodium falciparum; settings: Plasmodium falciparum, K1, 72 h, parasite lactate dehydrogenase assay over 72 h; read-out: Pf IC50 ± SD K1
[22] = Plasma protein binding, mouse; type: in vitro ADME; settings: read-out: PPB fu, mouse
[23] = physchem
[24] = in vivo; settings: zebrafish, in vivo
[25] = system: zebrafish embryos; experiment: in vivo
[26] = purified recombinant PvPI4K, 10 μM ATP, ADP-Glo, mean of N ≥ 2, read-out: PvPI4K IC50 ± SD

FC(F)(F)c1ccc(-c2ccc3nccc(N[C@@H]4CCNC4)c3n2)cn1 [Compound 16, N-[(3R)-Pyrrolidin-3-yl]-6-[6-(trifluoromethyl)pyridin-3-yl]-1,5-naphthyridin-4-amine]
IC50 [1, 26]: 66 ± 21 nM | IC50 [2]: 86 ± 16 nM | IC50 [3]: > 50000 nM | IC50 ([4]; 72 h, read-out: ABS IC50 for PfPI4K cKD, N=1, +aTc, experiment N=1, +aTc (500 nM, control conditions), 72 hours): 71 nM | IC50 ([4]; 72 h, read-out: ABS IC50 for PfPI4K cKD, N=1, no aTc, experiment N=1, no aTc (PI4K knockdown), 72 hours): 72 nM | IC50 ([4]; 72 h, read-out: ABS IC50 for PfPI4K cKD, N=2, +aTc, experiment N=2, +aTc (500 nM, control conditions), 72 hours): 118 nM | IC50 ([4]; 72 h, read-out: ABS IC50 for PfPI4K cKD, N=2, no aTc, experiment N=2, no aTc (PI4K knockdown), 72 hours): 118 nM | IC50 ([4]; 72 h, read-out: ABS IC50 for PfPI4K cKD, N=3, +aTc, experiment N=3, +aTc (500 nM, control conditions), 72 hours): 63 nM | IC50 ([4]; 72 h, read-out: ABS IC50 for PfPI4K cKD, N=3, no aTc, experiment N=3, no aTc (PI4K knockdown), 72 hours): 72 nM | IC50 ([4]; read-out: ABS IC50 for PfPI4K cKD, Mean + SD, +aTc, mean of N=3, +aTc (control conditions)): 84 ± 30 nM | IC50 ([4]; read-out: ABS IC50 for PfPI4K cKD, Mean + SD, no aTc, mean of N=3, no aTc (PI4K knockdown)): 88 ± 27 nM | ABS IC50 for PfPI4K cKD, N=1, fold shift ([4]; experiment N=1, +aTc vs no aTc): 0.98 fold | ABS IC50 for PfPI4K cKD, N=2, fold shift ([4]; experiment N=2, +aTc vs no aTc): 1.00 fold | ABS IC50 for PfPI4K cKD, N=3, fold shift ([4]; experiment N=3, +aTc vs no aTc): 0.88 fold | ABS IC50 for PfPI4K cKD, mean fold shift (fold decrease in IC50 on knockdown) ([4]; mean, +aTc vs no aTc): 0.95 fold | logD at 3 h [5]: 0.96 | IC50 [6]: > 20000 nM | IC50 [7]: > 20000 nM | IC50 [8]: > 20000 nM | efflux ratio [9]: 13 | Papp A→B ([9]; A > B): 2.6 ×10⁻⁶ cm/s | fraction unbound at 5 h, 5 µM [10]: 0.18 | CLint scaled at 1 µM [11]: < 13 mL/min/kg | CLint scaled at 1 µM [12]: < 21 mL/min/kg | CLint scaled at 1 µM [13]: < 467 mL/min/kg | in vivo mouse CLu [14]: 76 mL/min/kg | Vd at 24 h [14]: 3.1 L/kg | half-life at 24 h [14]: 2.7 h | bioavailability at 24 h [14]: 96% | in vivo mouse CLb [14]: 13.70 mL/min/kg | IC50 [15]: 8900 nM | IC50 [16]: > 10000 nM | IC50 [17]: > 10000 nM | IC50 [18]: > 10000 nM | IC50 [19]: 32000 nM and < 60000 nM | solubility at 20 h ([20]; PBS, pH 6.5): 195 µM (≈ 70.1 µg/mL) | solubility at 20 h ([20]; aqueous solution): 200 µM (≈ 71.9 µg/mL)

CN1CCC(Nc2ccnc3ccc(-c4ccc(C(F)(F)F)nc4)nc23)CC1 [Compound 21, N-(1-Methylpiperidin-4-yl)-6-[6-(trifluoromethyl)pyridin-3-yl]-1,5-naphthyridin-4-amine]
IC50 [1, 26]: 175 ± 82 nM | IC50 [2]: 52 ± 14 nM | IC50 [21]: 162 ± 4 nM | IC50 [3]: > 50000 nM | logD at 3 h [5]: 1.86 | fraction unbound at 5 h, 5 µM [10]: 0.5 | fraction unbound at 5 h, 5 µM [22]: 0.3 | CLint scaled at 1 µM [11]: < 10 mL/min/kg | CLint scaled at 1 µM [12]: < 21 mL/min/kg | CLint scaled at 1 µM [13]: < 46 mL/min/kg | in vivo mouse CLu [14]: 22 mL/min/kg | Vd at 24 h [14]: 12 L/kg | half-life at 24 h [14]: 16 h | bioavailability at 24 h [14]: 99% | in vivo mouse CLb [14]: 9.90 mL/min/kg | IC50 [19]: 35000 nM and < 60000 nM | solubility at 20 h ([20]; PBS, pH 6.5): 160 µM (≈ 62 µg/mL) | solubility at 20 h ([20]; aqueous solution): 160 µM (≈ 62 µg/mL)

FC(F)CN1CCC(Nc2ccnc3ccc(-c4ccc(C(F)(F)F)nc4)nc23)CC1 [Compound 23, N-[1-(2,2-Difluoroethyl)piperidin-4-yl]-6-[6-(trifluoromethyl)pyridin-3-yl]-1,5-naphthyridin-4-amine]
IC50 [1]: 53 ± 28 nM | IC50 [2]: 880 ± 34 nM | solubility [23]: 20 µM (≈ 8.75 µg/mL) | IC50 [19]: 30000 nM and < 60000 nM

CCN(CC)c1ccc(C=O)cc1 [DEAB, Diethylaminobenzaldehyde]
AC50 ([24]; 50% larvae population show a teratogenic phenotype): 1000 nM | LC50 at 96 h ([24]; concentration at which 50% of larvae die at 96 h post fertilization): 4600 nM | teratogen ([25]; classification): yes | TI (teratogenic index) ([25]; ratio between LC50 and AC50, >3 classifies as teratogen): 4.6
